Source: US20230331918A1, “AMMONIUM AND SULFONIUM SULFONATE ZWITTERIONS AND POLYMERS DERIVED THEREFROM” (University of Massachusetts, priority 2022, published 2023)
In brackets after ≈: the same amount, converted by molar mass.

Experiment: Solubility of monomers and polymers in water, methanol, chloroform
Assay type: physicochemical
Description: Monomer solubility (e.g., in water, methanol, or chloroform) varied with the selection of R-groups on the ammonium cation.

SMILES | Monomer solubility in MeOH (similar concentration (˜500 mg mL-1)) | solubility (methanol, organic solvent or mixture, monomer, room temperature, read-out: Monomer solubility in MeOH (clear solution)) [mg/mL]
C=Cc1ccc(CC(CC[N+](CCCC)(CCCC)CCCC)S(=O)(=O)[O-])cc1 (centres unmarked) [tri-n-butyl derivative, 4-(Tributylammonio)-1-(4-vinylphenyl)butane-2-sulfonate] | required slightly elevated temperatures to attain solubility in MeOH | –
C=Cc1ccc(CC(CC[N+](CCC)(CCC)CCC)S(=O)(=O)[O-])cc1 (centres unmarked) [tri-n-propyl derivative, 4-(Tripropylammonio)-1-(4-vinylphenyl)butane-2-sulfonate] | – | ~500 (≈ 1310 mM)
